Consider 26 compounds from ChEMBL document CHEMBL3407347, “Discovery of new acylaminopyridines as GSK-3 inhibitors by a structure guided in-depth exploration of chemical space around a pyrrolopyridinone core” (Bioorg Med Chem Lett, 2015).

In data set [1] the target is Glycogen synthase kinase-3 beta (Homo sapiens, UniProt P49841). In words: Inhibition of GSK3beta (unknown origin) activity by competitive binding assay.
The species named for the next data set is Homo sapiens. Description: Selectivity ratio for GSK3beta (unknown origin) to CK2A2 (unknown origin).
For another data set, the system named is Mus musculus. In words: Reduction in pTau396 level in LaFerla 3xTg-C57BL6 mouse at 30 mg/kg, po by ELISA. The data set is classed as functional, organism-based. More on the design: dose 30 mg/kg. (In an ELISA, binding on a coated surface is turned into a signal by an enzyme label.)
A short description of data set [2]: Ratio of brain to plasma in LaFerla 3xTg-C57BL6 mouse at 30 mg/kg, po. As to conditions: brain and plasma, read-out: BPR. More on the design: dose 30 mg/kg, route oral. The data set is classed as ADME, organism-based.

Calls of active or inactive are those of the source. The rule behind the calls is not given here.

Sequence of Glycogen synthase kinase-3 beta (P49841 whole entry): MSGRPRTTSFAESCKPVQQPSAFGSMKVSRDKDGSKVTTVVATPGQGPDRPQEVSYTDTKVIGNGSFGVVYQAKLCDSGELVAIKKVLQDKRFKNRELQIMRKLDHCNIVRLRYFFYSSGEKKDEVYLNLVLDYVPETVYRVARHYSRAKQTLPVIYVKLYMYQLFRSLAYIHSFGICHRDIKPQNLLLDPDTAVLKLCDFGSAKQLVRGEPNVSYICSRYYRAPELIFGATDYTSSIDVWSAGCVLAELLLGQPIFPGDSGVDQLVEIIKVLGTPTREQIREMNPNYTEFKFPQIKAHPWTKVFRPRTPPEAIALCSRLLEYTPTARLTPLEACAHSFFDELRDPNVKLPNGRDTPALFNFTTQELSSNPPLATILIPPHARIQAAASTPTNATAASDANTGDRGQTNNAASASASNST

The IC50 is the concentration at which inhibition is half-maximal. The compound `O=C(Nc1cc(-c2ccc3ccccc3c2)ccn1)C1CC1` gave an IC50 in data set [1] of 610 nM. That is a sub-micromolar value.
For the compound `COc1sc(-c2ccnc(NC(=O)C3CC3)c2)nc1C(N)=O`, in data set [1], the IC50 is 30 nM. Besides, the Ratio in the data set listed under Homo sapiens was > 67.
As for `NC(=O)c1sc(-c2ccnc(NC(=O)C3CC3)c2)nc1OCC1CC1`, the IC50 in data set [1] was determined as 0.29 nM.
With `NC(=O)c1cnc(-c2ccnc(NC(=O)C3CC3)c2)cn1`, the IC50 in data set [1] was 30 nM.
In turn, `CC(C)Oc1cc(-c2ccnc(NC(=O)C3CC3)c2)ncc1C(N)=O` came in with an IC50 in data set [1] of 4.4 nM. Against the preceding compound, the IC50 is about 6.8-fold lower.
Still for that read-out and setting: the result for `O=C(Nc1cc(-c2ccc3ccncc3c2)ccn1)C1CC1` reads 74 nM; that for `O=C1NCCCc2cc(-c3ccnc(NC(=O)C4CC4)c3)ccc21`, 2.4 nM; that for `NC(=O)c1sc(-c2ccnc(NC(=O)C3CC3)c2)nc1OC1CCC1`, 0.37 nM.
On the same count and under the same terms, next, `O=C1NCCOc2cc(-c3ccnc(NC(=O)C4CC4)c3)ccc21`: 4.7 nM; `O=C1CCCc2cc(-c3ccnc(NC(=O)C4CC4)c3)ccc2N1`: 730 nM.
On the same count and under the same terms, the result for `O=C1NCc2cc(-c3ccnc(NC(=O)C4CC4)c3)ccc21` reads 11 nM; that for `CC(C)Oc1nc(-c2ccnc(NC(=O)C3CC3)c2)sc1C(N)=O`, 0.45 nM; that for `NC(=O)c1cnc(-c2ccnc(NC(=O)C3CC3)c2)cc1OCC(F)(F)F`, 6.8 nM.
As for `Cn1nc(C(N)=O)cc1-c1ccnc(NC(=O)C2CC2)c1`, in data set [1], the IC50 worked out at 24 nM.
On to `O=C1NCCc2cc(-c3ccnc(NC(=O)C4CC4)c3)ccc21`, for which the IC50 in data set [1] came to 2.4 nM. In the data set on Mus musculus, the inhibition result is “Active”.
In data set [1], `COc1cc(-c2ccnc(NC(=O)C3CC3)c2)ncc1C(N)=O` yielded an IC50 of 22 nM. This counts as double-digit nanomolar.
As to `COc1nc(-c2ccnc(NC(=O)C3CC3)c2)sc1C(N)=O`, the IC50 in data set [1] was 1.1 nM. For the same compound, in the data set on Mus musculus, the inhibition result was “Active”. Further, the Kp in data set [2] came to 0.26. Further, in the data set filed under Homo sapiens, the Ratio stood at 10.
Take `NC(=O)c1cnc(-c2ccnc(NC(=O)C3CC3)c2)s1`: in data set [1], the IC50 stood at 13 nM.
The same measure, in the same setting: the result for `O=C(Nc1cc(-c2ccc3ncccc3c2)ccn1)C1CC1` reads 7.5 nM; that for `NC(=O)c1ccc(-c2ccnc(NC(=O)C3CC3)c2)nn1`, 140 nM.
Same read-out and setting: next, `CC(C)Oc1nc(-c2ccnc(NC(=O)C3CC3)c2)ncc1C(N)=O`: 0.83 nM; `Cc1nc(-c2ccnc(NC(=O)C3CC3)c2)sc1C(N)=O`: 37 nM; `COc1cc(-c2ccnc(NC(=O)C3CC3)c2)cnc1C(N)=O`: 7 nM.
In data set [1], `O=C(Nc1cc(-c2ccc3cccnc3c2)ccn1)C1CC1` displayed an IC50 of 240 nM. This IC50 is about 34-fold higher than that of the compound before.
Consider `COc1nc(-c2ccnc(NC(=O)C3CC3)c2)ncc1C(N)=O`, for which the IC50 in data set [1] was 5.9 nM.
Same read-out and setting: next, `NC(=O)c1ccc(-c2ccnc(NC(=O)C3CC3)c2)cn1`: 90 nM.
